Laboratory results published in PMC12063055 (Crystal Growth & Design, 2025).
Converted amounts (≈) assume the structure as drawn. Like-named read-outs stand apart in the source and are kept apart here.

Legend:
[1] = Acidity values (pKa) of the molecules, literature values; assay type: physicochemical; conditions: pKa1 of HAL minus pKa1 of coformer
[2] = Solubility studies, shake-flask method with HPLC quantification of HAL; assay type: physicochemical; conditions: for solubility in KCl pH 1.2: buffer KCl (0.2 M) pH 1.2, 24 h stirring at 25 °C; for solubility in KCl pH 1.2 / solubility in PBS pH 6.8: HAL concentration by HPLC at 248 nm; for improvement over HAL (solubility in KCl pH 1.2): buffer KCl pH 1.2, ratio to HAL solubility; for solubility in PBS pH 6.8: buffer PBS (0.2 M) pH 6.8, 24 h stirring at 25 °C; for improvement over HAL (solubility in PBS pH 6.8): buffer PBS pH 6.8, ratio to HAL solubility
Procedure: A Scharlau (Barcelona, Spain) 100 C18 chromatographic column (3 μm, 150 × 4.6 mm) was set at 25 °C and used for compound separation, using an isocratic elution method. The mobile phase was composed of a mixture of 90% acetonitrile and 10% water. The flow rate was 0.8 mL/min, and the injection volume was 30 μL. ChemStation software was used for data acquisition and analysis (Agilent Technologies, Santa Clara, CA, USA).

[3] = high permeability but poor solubility in aqueous solution; ref [5],[6]; cited from earlier work
[4] = 25 °C, pH 1.2, aqueous buffer, thermodynamic from solid, read-out: solubility in KCl pH 1.2
[5] = 25 °C, pH 6.8, aqueous buffer, thermodynamic from solid, read-out: solubility in PBS pH 6.8

O=C(O)CCCC(=O)O [Glutaric acid, glutaric acid]
ΔpKa1 (difference of acidity of the coformer with HAL) [1]: 3.71

O=C(O)CCCCCCC(=O)O [Suberic acid, suberic acid]
ΔpKa1 (difference of acidity of the coformer with HAL) [1]: 3.52

O=C(CCCN1CCC(O)(c2ccc(Cl)cc2)CC1)c1ccc(F)cc1.O=C(O)CCCCCC(=O)O [HAL^+·PI^–]
solubility in KCl pH 1.2 [2]: 1.246 ± 0.035 mg/mL
improvement over HAL (solubility in KCl pH 1.2) [2]: 1.5×
solubility in PBS pH 6.8 [2]: 0.072 ± 0.001 mg/mL
improvement over HAL (solubility in PBS pH 6.8) [2]: 9.7×

O=C(CCCN1CCC(O)(c2ccc(Cl)cc2)CC1)c1ccc(F)cc1.O=C(O)/C=C\C(=O)O [HAL^+·ME^–]
solubility at 24 h [2, 4]: 1400 ± 20 µg/mL
solubility at 24 h [2, 5]: 74 ± 4 µg/mL
solubility of the salt relative to the ionic cocrystal (HAL^+)2·(FU^2–)·(FU) ([2]; both phases with C4 coformers): twice

O=C(CCCN1CCC(O)(c2ccc(Cl)cc2)CC1)c1ccc(F)cc1.O=C(O)CC(=O)O [HAL^+·MO^–]
solubility at 24 h [2, 4]: 525 ± 37 µg/mL
solubility at 24 h [2, 5]: 119 ± 2 µg/mL

O=C(CCCN1CCC(O)(c2ccc(Cl)cc2)CC1)c1ccc(F)cc1.O=C(O)CCCC(=O)O [HAL^+·GU^–]
solubility in KCl pH 1.2 [2]: 1.021 ± 0.012 mg/mL
solubility in PBS pH 6.8 [2]: 0.048 ± 0.001 mg/mL

O=C(O)CCCCCC(=O)O [Pimelic acid, pimelic acid]
ΔpKa1 (difference of acidity of the coformer with HAL) [1]: 3.55

O=C(CCCN1CCC(O)(c2ccc(Cl)cc2)CC1)c1ccc(F)cc1 [HAL, Haloperidol, reference compound]
solubility at 24 h ([2]; KCl buffer (0.2 M) pH 1.2, 25 °C, pH 1.2, aqueous buffer, thermodynamic from solid, read-out: solubility in KCl pH 1.2): 831 ± 42 µg/mL (≈ 2210 µM)
solubility at 24 h ([2]; PBS buffer (0.2 M) pH 6.8, 25 °C, pH 6.8, aqueous buffer, thermodynamic from solid, read-out: solubility in PBS pH 6.8): 7 ± 1 µg/mL (≈ 18.6 µM)
Biopharmaceutics Classification System (BCS) class [3]: Class II

O=C(CCCN1CCC(O)(c2ccc(Cl)cc2)CC1)c1ccc(F)cc1.O=C(CCCN1CCC(O)(c2ccc(Cl)cc2)CC1)c1ccc(F)cc1.O=C(O)/C=C/C(=O)O.O=C(O)/C=C/C(=O)O [(HAL^+)2·(FU^2–)·(FU)]
solubility at 24 h [2, 4]: 1060 ± 27 µg/mL
solubility at 24 h [2, 5]: 33 ± 4 µg/mL
solubility at 24 h ([2]; pH 1.2, read-out: solubility in KCl pH 1.2): ~1000 µg/mL

O=C(CCCN1CCC(O)(c2ccc(Cl)cc2)CC1)c1ccc(F)cc1.O=C(CCCN1CCC(O)(c2ccc(Cl)cc2)CC1)c1ccc(F)cc1.O=C(O)c1ccc(C(=O)O)cc1.O=C(O)c1ccc(C(=O)O)cc1 [(HAL^+)2·(TR^2–)·(TR)]
solubility in KCl pH 1.2 [2]: 0.678 ± 0.019 mg/mL
solubility in PBS pH 6.8 [2]: 0.051 ± 0.002 mg/mL

O=C(CCCN1CCC(O)(c2ccc(Cl)cc2)CC1)c1ccc(F)cc1.O=C(CCCN1CCC(O)(c2ccc(Cl)cc2)CC1)c1ccc(F)cc1.O=C(O)CCCCCCC(=O)O.O=C(O)CCCCCCC(=O)O [(HAL^+)2·(SU^2–)·(SU)]
solubility in KCl pH 1.2 [2]: 1.074 ± 0.036 mg/mL
improvement over HAL (solubility in KCl pH 1.2) [2]: 1.3×
solubility in PBS pH 6.8 [2]: 0.017 ± 0.001 mg/mL
improvement over HAL (solubility in PBS pH 6.8) [2]: 2.3×
